What was measured:
[1] = Solubility and dissolution rate of solid forms; format: physicochemical
Method: (§1) 1. Characteristic reflections of radiprodil monohydrate are the followings: 4.9, 15.1, 18.1, 26.8 and 30.2±0.2° 2θ 2. Characteristic IR absorption bands of radiprodil monohydrate are the followings: 3644, 1836, 1809, 1789, 1645 and 919±4 cm^−1. 3. Characteristic Raman absorption bands of radiprodil monohydrate are the followings: 2887, 1642, 1484, 1295 and 726±4 cm^−1. […] While the dihydrate Form can be dehydrated relatively easily at elevated temperature, the monohydrate Form is sufficiently stable under such conditions. […] This relative stability of the monohydrate Form compared to the dihydrate Form is advantageous in formulation technological steps involving elevated temperatures.
(§2) 1. There are no reflections on XRPD pattern of radiprodil amorphous form. 2. Characteristic IR absorption bands of radiprodil amorphous form are the followings: 3275, 1768, 1685, 1219 and 544±4 cm^−1. 3. Characteristic Raman absorption bands of radiprodil amorphous are the followings: 3071, 1687, 1640, 1414, 1280 and 852±4 cm^−1. […] One particular advantage of the discovered amorphous Form is that it is relatively stable.

[2] = Storage stability of the amorphous form against crystallization; format: physicochemical; conditions: normal laboratory conditions, several months
Source text: as §2

[3] = Pharmacokinetic profile in dogs (plasma concentrations by validated HPLC(UV) method); format: in vivo; conditions: 5 mg/kg dose adjusted to the anhydrous active substance, plasma samples up to 24 hours post dose
Method: Another essential value of the dihydrate Form is the observed better pharmacokinetic profile in dogs compared to the anhydrate Form A. Both forms in 5 mg/kg dose adjusted to the anhydrous active substance were administered to dogs and relevant pharmacokinetic parameters (AUC, Cmax) were calculated from the plasma profiles of the individual animals. The animals were […] seventeen hours before and six hours after drug administration. Plasma concentrations were measured in the trial samples taken up to 24 hours post dose by a validated HPLC(UV) method.

[4] = Thermal stability, loss of water of hydration at 50° C. in N2 atmosphere; format: physicochemical
Method: as §1

[5] = Stress stability of the solid form (chemical impurities and physical form); format: physicochemical; conditions: stress conditions 25° C./75% RH; 50° C.; 50° C./oxygen; 50° C./75% RH; 50° C./90% RH; 75° C.; 75° C./oxygen, 10 days
Method: (§3) (IV) a DSC trace substantially in accordance with FIG. 5; • Characteristic diffraction and spectroscopic data of radiprodil anhydrate Form A are as follows: 1. Characteristic XRPD reflections of radiprodil anhydrate Form A are the following: 7.8, 22.0, 23.7, 27.0 and 27.6±0.2° 2 θ 2. Characteristic IR absorption bands of radiprodil anhydrate Form A are the following: 3295, 2863, 1852, 1768, 1058 and 635±4 cm^−1. 3. Characteristic Raman absorption bands of radiprodil anhydrate Form A are the following: 3106, 1680, 1641, 1470, 1274 and 507±4 cm^−1. […] All the other discovered solid forms can be converted to anhydrate Form A in suspension. This conversion takes place in absolute ethanol or in ethanol:water mixtures within a few hours. This relative stability advantage of anhydrous Form A of radiprodil can be favorably utilized in the development of active ingredient as well as dosage forms that are sufficiently stable both chemically and physically during extended shelf life. […] Due to its physical stability and non-hygroscopic character this polymorphic form is particularly advantageous in dosage formulation processes where the active ingredient is exposed to water during the process, such as wet granulation.

[6] = Hygroscopicity, weight gain at elevated humidity; format: physicochemical; conditions: 50° C./90% RH, 10 days
Method: as §3

[7] = Relative thermodynamic stability, conversion of solid forms in suspension; format: physicochemical; conditions: room temperature
Method: as §3

O=C(Nc1ccc2[nH]c(=O)oc2c1)C(=O)N1CCC(Cc2ccc(F)cc2)CC1 [amorphous Form, 2-[4-(4-Fluorobenzyl)-piperidin-1-yl]-2-oxo-N-(2-oxo-2,3-dihydro-benzoxazol-6-yl)-acetamide amorphous form]
dissolution rate among the solid forms [1]: largest
solubility among the solid forms [1]: largest
crystallization on storage [2]: without crystallization

O=C(Nc1ccc2[nH]c(=O)oc2c1)C(=O)N1CCC(Cc2ccc(F)cc2)CC1 [dihydrate Form, 2-[4-(4-Fluorobenzyl)-piperidin-1-yl]-2-oxo-N-(2-oxo-2,3-dihydro-benzoxazol-6-yl)-acetamide dihydrate]
AUC24 ([3]; dihydrate): 4491 ng·h/mL
Cmax ([3]; dihydrate): 395 ng/mL
time to loss of water of hydration [4]: 2 h

O=C(Nc1ccc2[nH]c(=O)oc2c1)C(=O)N1CCC(Cc2ccc(F)cc2)CC1 [monohydrate Form, 2-[4-(4-Fluorobenzyl)-piperidin-1-yl]-2-oxo-N-(2-oxo-2,3-dihydro-benzoxazol-6-yl)-acetamide monohydrate]
weight loss (water of hydration) ([4]; same conditions as dihydrate Form (2 hours)): does not show detectable weight loss
solubility compared to anhydrate Form A [1]: greater solubility

O=C(Nc1ccc2[nH]c(=O)oc2c1)C(=O)N1CCC(Cc2ccc(F)cc2)CC1 [anhydrate Form A, 2-[4-(4-Fluorobenzyl)-piperidin-1-yl]-2-oxo-N-(2-oxo-2,3-dihydro-benzoxazol-6-yl)-acetamide anhydrate Form A]
AUC24 [3]: 1554 ng·h/mL
Cmax [3]: 125 ng/mL
change of sum of chemical impurities and of physical form compared to the starting material [5]: neither the sum of chemical impurities nor the physical form has changed
weight gain (hygroscopicity) [6]: did not show measurable weight gain
thermodynamic stability among the discovered forms [7]: thermodynamically most stable form
